Test results as given in patent US10669258B2, “3-sulfonyl-5-aminopyridine-2,4-diol APJ agonists” (BRISTOL-MYERS SQUIBB COMPANY, priority 2016, dated 2020).
Where two headings read alike, the source gives them in different places.

Target: T1, human APJ receptor (Homo sapiens, UniProt P35414)
T1 construct: expressed in transfected cells; host or cells: HEK293
T1 sequence (P35414 1-380): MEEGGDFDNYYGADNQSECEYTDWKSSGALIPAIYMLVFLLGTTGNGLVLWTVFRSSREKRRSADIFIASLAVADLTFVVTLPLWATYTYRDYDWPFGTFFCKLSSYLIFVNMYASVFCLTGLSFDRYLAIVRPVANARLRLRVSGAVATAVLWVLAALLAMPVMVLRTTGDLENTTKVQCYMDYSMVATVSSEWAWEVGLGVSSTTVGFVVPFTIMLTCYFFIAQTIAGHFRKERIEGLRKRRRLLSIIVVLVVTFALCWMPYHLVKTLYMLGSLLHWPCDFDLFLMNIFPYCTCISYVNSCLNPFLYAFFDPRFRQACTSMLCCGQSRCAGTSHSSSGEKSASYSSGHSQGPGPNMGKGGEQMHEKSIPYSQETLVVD
Test: Intracellular cAMP accumulation assay (APJ hcAMP, HTRF)
Type: cell-based
Settings: HEK293 cells stably expressing human APJ receptor, inhibition of forskolin-mediated cAMP production
Protocol: Intracellular cAMP Accumulation Assay
HEK293 cells stably expressing human APJ receptor were used to assess the activity of compounds. Cultured cells were detached and resuspended in the cAMP Homogeneous Time-Resolved Fluorescence (HTRF) assay buffer (Cisbio cat; #62AM4PEJ). The assay was performed in 384-well assay plates (Perkin-Elmer; cat #6008289) according to assay protocol provided by the manufacturer. Serial dilutions of a compound together with assay buffer containing […] IBMX and 2 μM forskolin were added to each well containing 5,000 cells and incubated for 30 minutes at room temperature. Subsequently, cAMP D2 reagent was added in the lysis buffer followed by the EuK antibody (Cisbio; cat #62AM4PEJ) and incubated for 60 min. The fluorescence emission ratio was measured using fluorometer. The intracellular cAMP concentrations (compound-stimulated inhibition of forskolin-mediated cAMP production) were calculated by extrapolation from a standard curve using known cAMP concentrations. The EC50 values were obtained by fitting the data to a sigmoidal concentration-response curve with variable slope. The maximal achievable inhibition of forskolin-induced cAMP levels (Ymax) for each compound was expressed as relative percentage of inhibition attained using pyroglutamated apelin-13 ((Pyr1)apelin-13) peptide, which was set to 100%.
The examples disclosed below were tested in the APJ in vitro assays described above and were found having human APJ cyclic AMP (hcAMP) activity. The EC50 value of each compound is presented at the end of the example description.
The biological activity of the exemplified compounds of this invention determined by the assay described above is shown at the end of each example.

[1] = Table 1, read-out: hAPJ cAMP EC50 Potency range
[2] = Table 2, read-out: hAPJ cAMP EC50 Potency range

Structure (SMILES) | EC50 [1] | also measured
CCCCc1nc(O)c(S(=O)(=O)c2ccc(-c3ccccc3C(N)=O)cc2)c(O)c1N(CC)c1cccc(C#N)c1 [Example 181, 4′-((6-butyl-5-((3-cyanophenyl)(ethyl)a-mino)-2,4-dihdyroxypyridin-3-yl)sulfonyl)-[1,1′-biphenyl]-2-carboxamide] | 0.01 to 10 nM | 
CCCCc1nc(O)c(S(=O)(=O)c2ccc(-c3cccnc3C)cc2)c(O)c1N1CCC(C)c2ccccc21 (stereo not shown) [Example 042] | 10 to 100 nM | 
CCCCc1nc(O)c(C(=O)N2CC[C@H](c3ccccc3)C2)c(O)c1N(CCC)c1ccccc1 [Example 069, (R)-(6-butyl-2,4-dihydroxy-5-(phenyl(propyl)amino)pyridin-3-yl)(3-phenylpyrrolidin-1-yl)methanone] | 10 to 100 nM | 
CCN(c1ccccc1)c1c(-c2ccn(C)n2)nc(O)c(C(=O)N2CCC(c3ccc(F)cc3F)C2)c1O (stereo not shown) [Example 201, (3-(2,4-difluorophenyl)pyrrolidin-1-yl)(5-(ethyl(phenyl)amino)-2,4-dihydroxy-6-(1-methyl-1H-pyrazol-3-yl)pyridin-3-yl)methanone] |  | EC50 [2]: 0.01 to 10 nM
CCN(c1ccccc1)c1c(CC2CC2)nc(O)c(S(=O)(=O)c2ccc(-c3ccccc3C(=O)NC)cc2)c1O [Example 055, 4′-((6-(cyclopropylmethyl)-5-(ethyl(phenyl)amino)-2,4-dihydroxypyridin-3-yl)sulfonyl)-N-methyl-[1,1′-biphenyl]-2-carboxamide] | 0.01 to 10 nM | 
CCN(c1cccc(C#N)c1)c1c(-c2ccn(C)n2)nc(O)c(S(=O)(=O)c2ccc(-c3ccccc3C(=O)NC)cc2)c1O [Example 214, 4′-((5-((3-cyanophenyl)(ethyl)ami-no)-2,4-dihydroxy-6-(1-methyl-1H-pyrazol-3-yl)pyridin-3-yl)sulfonyl)-N-methyl-[1,1′-biphenyl]-2-carboxamide] | 0.01 to 10 nM | 
CCCCc1nc(O)c(S(=O)(=O)c2ccc(-c3ccccc3C(N)=O)cc2)c(O)c1N1CCCOc2ccccc21 [Example 168, 4′-((6-butyl-5-(3,4-dihydrobenzo[b][1,4]ox-azepin-5(2H)-yl)-2,4-dihydroxypyridin-3-yl)sulfonyl)-[1,1′-biphenyl]-2-carboxamide] | 0.01 to 10 nM | 
CCN(c1ccccc1)c1c(-c2cnc(C)s2)nc(O)c(S(=O)(=O)c2ccc(-c3ccnc(F)c3C)cc2)c1O [Example 191, 5-(ethyl(phenyl)amino)-3-((4-(2-fluoro-3-methylpyridin-4-yl)phenyl)sulfonyl)-6-(2-methylthiazol-5-yl)pyridine-2,4-diol] | 0.01 to 10 nM | 
CCCCc1nc(O)c(S(=O)(=O)c2ccc(-c3ccncc3C)cc2)c(O)c1N(CC)c1cc(C)cc(C)c1 [Example 133, 6-butyl-5-((3,5-dimethylphenyl)(ethyl)amino)-3-((4-(3-methylpyridin-4-yl)phenyl)sulfonyl)pyridine-2,4-diol] | 0.01 to 10 nM | 
Cc1ncccc1-c1ccc(S(=O)(=O)c2c(O)nc(-c3ccn(C)n3)c(N(c3ccccc3)C(C)C)c2O)cc1 [Example 165, 5-(iso-propyl(phenyl)amino)-6-(1-methyl-1H-pyrazol-3-yl)-3-((4-(2-methylpyridin-3-yl)phenyl)sulfonyl)pyri-dine-2,4-diol] | 0.01 to 10 nM | 
CCCCc1nc(O)c(S(=O)(=O)c2ccc(-c3cccnc3C)cc2)c(O)c1N(C)c1ccccc1F [Example 124, 6-butyl-5-((2-fluorophenyl)(methyl)amino)-3-((4-(2-methylpyridin-3-yl)phenyl)sulfonyl)pyridine-2,4-diol] | 0.01 to 10 nM | 
CCCCc1nc(O)c(S(=O)(=O)c2ccc(-c3ccc(F)nc3C)cc2)c(O)c1N(C)c1cccc(Cl)c1 [Example 105, 6-butyl-5-((3-chlorophenyl)(methyl)amino)-3-((4-(6-fluoro-2-methylpyridin-3-yl)phenyl)sulfonyl)pyridine-2,4-diol] | 10 to 100 nM | 
CCCCc1nc(O)c(S(=O)(=O)c2ccc(-c3ccncc3C)cc2)c(O)c1N(C)c1ccc(OC)cc1 [Example 037, 6-butyl-5-((4-methoxyphenyl)(methyl)amino)-3-((4-(3-methylpyridin-4-yl)phenyl)sulfonyl)pyridine-2,4-diol] | 0.01 to 10 nM | 
CCN(c1ccccc1)c1c(-c2cccc(C)c2)nc(O)c(S(=O)(=O)c2ccc(-c3ccccc3C(=O)N(C)C)cc2)c1O [Example 141, 4′-((5-(ethyl(phenyl)amino)-2,4-dihydroxy-6-(m-tolyl)pyridin-3-yl)sulfonyl)-N,N-dimethyl-[1,1′-biphenyl]-2-carboxamide] | 0.01 to 10 nM | 
CCN(c1ccccc1)c1c(-c2ccn(C)n2)nc(O)c(S(=O)(=O)c2ccc(-c3ccncc3C)cc2)c1O [Example 064, 5-(ethyl(phenyl)amino)-6-(1-methyl-1H-pyrazol-3-yl)-3-((4-(3-methylpyridin-4-yl)phenyl)sulfonyl)pyridine-2,4-diol] | 0.01 to 10 nM | 
CCN(c1ccccc1)c1c(-c2cccc(C)c2)nc(O)c(S(=O)(=O)c2ccc(-c3ccncc3C)cc2)c1O [Example 120, 5-(ethyl(phenyl)amino)-3-((4-(3-methylpyridin-4-yl)phenyl)sulfonyl)-6-(m-tolyl)pyridine-2,4-diol] | 0.01 to 10 nM | 
CCCCc1nc(O)c(S(=O)(=O)c2ccc(-c3cccnc3C)cc2)c(O)c1N1CCCCc2ccccc21 [Example 173, 6-butyl-3-((4-(2-methylpyridin-3-yl)phenyl)sulfonyl)-5-(2,3,4,5-tetrahydro-1H-benzo[b]azepin-1-yl)pyridine-2,4-diol] | 10 to 100 nM | 
CCN(c1ccccc1)c1c(-c2cnc(C)s2)nc(O)c(S(=O)(=O)c2ccc(-c3cccc(C(=O)NC)c3)cc2)c1O [Example 188, 4′-((5-(ethyl(phenyl)amino)-2,4-dihydroxy-6-(2-methylthiazol-5-yl)pyridin-3-yl)suflonyl)-N-methyl-[1,1′-biphenyl]-3-carboxamide] | 0.01 to 10 nM | 
CCCCc1nc(O)c(C(=O)N2CC[C@@H](c3ccccc3)C2)c(O)c1N1CCC(C)c2ccccc21 (stereo partly drawn) [Example 045, (6-butyl-2,4-dihydroxy-5-(4-methyl-3,4-dihydroquinolin-1(2H)-yl)pyridin-3-yl)((S)-3-phenylpyrrolidin-1-yl)methanone] | 0.01 to 10 nM | 
CCN(c1cccc(C#N)c1)c1c(-c2ccn(C)n2)nc(O)c(S(=O)(=O)c2ccc(-c3ccc(F)nc3C)cc2)c1O [Example 213, 3-(ethyl(5-((4-(6-fluoro-2-methylpyridin-3-yl)phenyl)sulfonyl)-4,6-dihydroxy-2-(1-methyl-1H-pyrazol-3-yl)pyridin-3-yl)amino)benzonitrile] | 0.01 to 10 nM | 
CCCCc1nc(O)c(S(=O)(=O)c2ccc(-c3ccccc3C(=O)NC)cc2)c(O)c1N(CC)c1cc(C)cc(C)c1 [Example 182, 4′-((6-butyl-5-((3,5-dimethyphenyl)(ethyl)a-mino)-2,4-dihydroxypyridin-3-yl)sulfonyl)-N-methyl-[1,1′-biphenyl]-2-carboxamide] | 0.01 to 10 nM | 
CCCCc1nc(O)c(C(=O)N2CCC(c3ncc(F)cc3F)C2)c(O)c1N(CC)c1ccccc1 (stereo not shown) [Example 073, (6-butyl-5-(ethyl(phenyl)amino)-2,4-dihydroxypyridin-3-yl)(3-(3,5-difluoropyridin-2-yl)pyrrolidin-1-yl)methanone] |  | EC50 (read-out: hAPJ cAMP EC50 Potency range, Table 1): 0.01 to 10 nM
CCCCc1nc(O)c(S(=O)(=O)c2ccc(-c3ccnc(F)c3C)cc2)c(O)c1N(C)c1cccc(C#N)c1 [AB-005, 3-((2-butyl-5-((4-(2-fluoro-3-methylpyridin-4-yl)phenyl)sulfonyl)-4,6-dihydroxypyridin-3-yl)(methyl)amino)benzonitrile] |  | EC50 (read-out: Human APJ cAMP Potency range): 0.01 to 10 nM
CCN(c1ccccc1)c1c(-c2ccn(C)n2)nc(O)c(C(=O)N2CCC(c3ccccc3F)C2)c1O (stereo not shown) [Example 202, (5-(ethyl(phenyl)amino)-2,4-dihydroxy-6-(1-methyl-1H-pyrazol-3-yl)pyridin-3-yl)(3-(2-fluorophenyl)pyrrolidin-1-yl)methanone] |  | EC50 [2]: 0.01 to 10 nM
CCCCc1nc(O)c(S(=O)(=O)c2ccc(-c3ccccc3C(N)=O)cc2)c(O)c1N(C)c1ccccc1C [Example 195, 4′-((6-butyl-2,4-dihydroxy-5-(methyl(o-tolyl)amino)pyridin-3-yl)sulfonyl)-[1,1′-biphenyl]-2-carboxamide] | 0.01 to 10 nM | 
